The target of test [1] is T1, androgen receptor (AR-LBD) (Rattus norvegicus, UniProt P15207).
T1 construct: 5 μL of 2×AR-LBD/Fluoromone AL Red Complex contained in the kit; purchased Invitrogen
T1 sequence (P15207 651-882 limits assumed): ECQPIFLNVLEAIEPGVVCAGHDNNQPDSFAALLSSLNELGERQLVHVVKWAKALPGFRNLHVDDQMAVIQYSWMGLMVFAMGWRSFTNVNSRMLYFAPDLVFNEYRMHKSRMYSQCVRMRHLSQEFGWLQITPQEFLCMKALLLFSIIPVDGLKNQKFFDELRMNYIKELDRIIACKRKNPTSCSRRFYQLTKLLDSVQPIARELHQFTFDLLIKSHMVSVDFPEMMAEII
Kind of test: Evaluation of androgen receptor affinity (PolarScreen Androgen Receptor Competitor Assay Kit, Red; fluorescence polarization). To be noted: 22° C. for 5 hours, relative to binding rate of 1 μM DHT, read-out: AR affinity (pEC50) (converted). The method in brief: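 Fluorescence polarization read-out after 5 h at 22° C of compound with a red-fluorophore-labelled AR-LBD complex. Displacement is scaled against 1 μM DHT, and the log reciprocal of the concentration reaching half that effect gives pEC50 via four-parameter curve fitting.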
For orientation: Polarisation of emitted light reports the rotation of a fluorescent probe.

Test [2] concerns the target T2, human androgen receptor (Homo sapiens, UniProt P10275).
T2 construct: expressed in transfected cells; host or cells: HEK293
T2 sequence (P10275 1-920): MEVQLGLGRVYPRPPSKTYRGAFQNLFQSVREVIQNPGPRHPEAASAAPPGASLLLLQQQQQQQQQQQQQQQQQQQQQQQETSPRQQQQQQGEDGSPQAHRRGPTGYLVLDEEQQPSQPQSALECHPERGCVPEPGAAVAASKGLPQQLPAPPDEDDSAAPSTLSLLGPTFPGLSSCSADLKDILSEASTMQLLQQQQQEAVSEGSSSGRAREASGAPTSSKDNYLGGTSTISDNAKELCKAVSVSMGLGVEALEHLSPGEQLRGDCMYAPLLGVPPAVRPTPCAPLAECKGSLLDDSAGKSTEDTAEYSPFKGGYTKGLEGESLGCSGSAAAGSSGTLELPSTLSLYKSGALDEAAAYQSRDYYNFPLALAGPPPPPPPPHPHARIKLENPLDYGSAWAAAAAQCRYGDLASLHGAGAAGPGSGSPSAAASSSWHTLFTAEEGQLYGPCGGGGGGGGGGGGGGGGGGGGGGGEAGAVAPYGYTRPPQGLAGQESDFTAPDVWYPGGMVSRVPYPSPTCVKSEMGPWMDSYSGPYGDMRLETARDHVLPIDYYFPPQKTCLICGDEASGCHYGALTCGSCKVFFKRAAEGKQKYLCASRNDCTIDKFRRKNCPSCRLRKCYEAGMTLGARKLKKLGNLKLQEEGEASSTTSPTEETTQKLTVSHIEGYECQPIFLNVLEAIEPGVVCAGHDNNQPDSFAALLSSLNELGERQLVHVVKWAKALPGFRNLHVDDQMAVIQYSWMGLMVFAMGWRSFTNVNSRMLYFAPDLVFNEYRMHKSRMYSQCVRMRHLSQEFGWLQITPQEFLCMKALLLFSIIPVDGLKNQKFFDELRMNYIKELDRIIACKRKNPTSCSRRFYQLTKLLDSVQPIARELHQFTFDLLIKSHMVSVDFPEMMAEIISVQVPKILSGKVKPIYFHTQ
Kind of test: Reporter assay of an androgen receptor responsive sequence (luciferase, transiently transfected HEK293 cells). It is filed as cell-based. To be noted: 24 hours incubation, relative to activity of 100 nM DHT, read-out: AR transcriptive activity (pEC50) (converted). Put shortly: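 HEK293 cells transiently transfected for 3 h with ARE-firefly luciferase, full-length human AR and TK-Renilla plasmids, then exposed to compound for 24 h at 37 °C in 5% charcoal-treated FBS/DMEM. Dual-Glo luminescence read; pEC50 from 4-parameter fit relative to 100 nM DHT.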
(In general: In a reporter assay the amount or activity of a reporter protein is the signal.)

Take `Cc1nc(CN(CCc2ccc(OC(F)F)cc2)c2nc(C(=O)NS(C)(=O)=O)c(C)s2)cs1` [Compound 513, 2-[2-[4-(difluoromethoxy)phenyl]ethyl-[(2-methylthiazol-4-yl)methyl]amino]-5-methyl-N-methylsulfonyl-thiazole-4-carboxamide]: the EC50 in test [1] was 200 nM; in test [2] it was 1580 nM.
For `COCCCS(=O)(=O)NC(=O)c1nc(N(Cc2ccccc2)c2ccc(C#N)cc2)sc1C1CC1` [Compound 664, 2-(N-benzyl-4-cyano-anilino)-5-cyclopropyl-N-(3-methoxypropylsulfonyl)thiazole-4-carboxamide] the same measures were 158 nM and > 10000 nM.
For `Cc1sc(N(Cc2ncc(Cl)cc2Cl)c2ccc(C#N)cc2)nc1C(=O)NS(C)(=O)=O` [Example 180, 2-[4-cyano-N-[(3,5-dichloro-2-pyridyl)methyl]anilino]-5-methyl-N-methylsulfonyl-thiazole-4-carboxamide] the same measures were 251 nM and 501 nM.
For `COCCCS(=O)(=O)NC(=O)c1nc(N(Cc2nc(C3CC3)no2)c2ccc(C#N)cc2)sc1C` [Example 197, 2-[4-cyano-N-[(3-cyclopropyl-1,2,4-oxadiazol-5-yl)methyl]anilino]-N-(3-methoxypropylsulfonyl)-5-methyl-thiazole-4-carboxamide], in that order: 1260 nM and 3980 nM.
With `Cc1sc(N(CC2CCCCC2)c2ccc(C#N)cc2)nc1C(=O)NS(C)(=O)=O` [Compound 344, 2-[4-cyano-N-(cyclohexylmethyl)anilino]-5-methyl-N-methylsulfonyl-thiazole-4-carboxamide], the figures for the EC50 in test [1] and in test [2] were 39.8 nM and 794 nM, respectively.
For `Cc1sc(N(Cc2cccc(OC(F)F)c2)c2ccc(C#N)cc2)nc1C(=O)NS(C)(=O)=O` [Compound 4, 2-[4-cyano-N-[[3-(difluoromethoxy)phenyl]methyl]anilino]-5-methyl-N-methylsulfonyl-thiazole-4-carboxamide] the same measures were 25.1 nM and 63.1 nM.
For `Cc1sc(N(Cc2nc(C3CC3)no2)c2ccc(C#N)cc2)nc1C(=O)NS(C)(=O)=O` [Example 196, 2-[4-cyano-N-[(3-cyclopropyl-1,2,4-oxadiazol-5-yl)methyl]anilino]-5-methyl-N-methylsulfonyl-thiazole-4-carboxamide], in that order: 631 nM and 1580 nM.
For `Cc1sc(N(Cc2ccc(F)c3cccnc23)c2ccc(C#N)cc2)nc1C(=O)NS(C)(=O)=O` [Example 175, 2-[4-cyano-N-[(5-fluoro-8-quinolyl)methyl]anilino]-5-methyl-N-methylsulfonyl-thiazole-4-carboxamide], in that order: 79.4 nM and 126 nM.
In the case of `Cc1sc(N(Cc2cccc(N(C)C)c2)c2ccc(C#N)cc2)nc1C(=O)NS(C)(=O)=O` [Example 215, 2-[4-cyano-N-[[3-(dimethylamino)phenyl]methyl]anilino]-5-methyl-N-methylsulfonyl-thiazole-4-carboxamide], the EC50 in test [1] was 50.1 nM; in test [2], 200 nM.
For `Cc1oc(N(CCc2ccc(Cl)cc2)Cc2ccc(Cl)cn2)nc1C(=O)NS(C)(=O)=O` [Compound 549, 2-[2-(4-chlorophenyl)ethyl-[(5-chloro-2-pyridyl)methyl]amino]-5-methyl-N-methylsulfonyl-oxazole-4-carboxamide] the same measures were 63.1 nM and 1260 nM.
As for `Cc1sc(N(CCc2ccccc2F)c2ccc(C#N)cc2)nc1C(=O)NS(C)(=O)=O` [Compound 80, 2-[4-cyano-N-[2-(2-fluorophenyl)ethyl]anilino]-5-methyl-N-methylsulfonyl-thiazole-4-carboxamide], the EC50 in test [1] was 316 nM; in test [2], > 10000 nM.
For `Cc1sc(N(Cc2cc(OC(F)F)ccc2F)c2ccc(C#N)cc2)nc1C(=O)NS(C)(=O)=O` [Compound 520, 2-[4-cyano-N-[[5-(difluoromethoxy)-2-fluoro-phenyl]methyl]anilino]-5-methyl-N-methylsulfonyl-thiazole-4-carboxamide] the same measures were 25.1 nM and 316 nM.
For `Cc1sc(N(CCc2ccc(Cl)cc2)Cc2ccc(Cl)cn2)nc1C(=O)NS(C)(=O)=O` [Compound 158, 2-[2-(4-chlorophenyl)ethyl-[(5-chloro-2-pyridyl)methyl]amino]-5-methyl-N-methylsulfonyl-thiazole-4-carboxamide], in that order: 100 nM and 631 nM.
On to `Cc1sc(N(CCOC2CCCCC2)c2ccc(C#N)cc2)nc1C(=O)NS(C)(=O)=O` [Compound 370, 2-[4-cyano-N-[2-(cyclohexoxy)ethyl]anilino]-5-methyl-N-methylsulfonyl-thiazole-4-carboxamide], for which the EC50 was 79.4 nM in test [1] and 2510 nM in test [2].
Turning to `COCCCS(=O)(=O)NC(=O)c1nc(N(Cc2ccc(Cl)cc2)c2ccc(C#N)cc2)sc1C` [Example 166, 2-[N-[(4-chlorophenyl)methyl]-4-cyano-anilino]-N-(3-methoxypropylsulfonyl)-5-methyl-thiazole-4-carboxamide], the EC50 was 25.1 nM in test [1] and 79.4 nM in test [2].
For `CSc1ccccc1CN(c1ccc(C#N)cc1)c1nc(C(=O)NS(C)(=O)=O)c(C)s1` [Compound 452, 2-[4-cyano-N-[(2-methylsulfanylphenyl)methyl]anilino]-5-methyl-N-methylsulfonyl-thiazole-4-carboxamide], in that order: 50.1 nM and 200 nM.
With `Cc1sc(N(Cc2ccc(OC(F)F)nc2)c2ccc(C#N)cc2)nc1C(=O)NS(C)(=O)=O` [Compound 524, 2-[4-cyano-N-[[6-(difluoromethoxy)-3-pyridyl]methyl]anilino]-5-methyl-N-methylsulfonyl-thiazole-4-carboxamide], the figures for the EC50 in test [1] and in test [2] were 39.8 nM and 501 nM, respectively.
For `Cc1sc(N(Cc2cc3ccccc3o2)c2ccc(C#N)cc2)nc1C(=O)NS(C)(=O)=O` [Compound 479, 2-[N-(benzofuran-2-ylmethyl)-4-cyano-anilino]-5-methyl-N-methylsulfonyl-thiazole-4-carboxamide] the same measures were 63.1 nM and 63.1 nM.
On to `Cc1sc(N(Cc2ccc(Br)nc2)c2ccc(C#N)cc2)nc1C(=O)NS(C)(=O)=O` [Compound 496, 2-[N-[(6-bromo-3-pyridyl)methyl]-4-cyano-anilino]-5-methyl-N-methylsulfonyl-thiazole-4-carboxamide], for which the EC50 in test [1] is 126 nM; in test [2], 158 nM.
As to `Cc1sc(N(CCC2CCCC2)c2ccc(C#N)cc2)nc1C(=O)NS(C)(=O)=O` [Compound 78, 2-[4-cyano-N-(2-cyclopentylethyl)anilino]-5-methyl-N-methylsulfonyl-thiazole-4-carboxamide], the EC50 in test [1] was 25.1 nM; in test [2], 158 nM.
Turning to `Cc1sc(N(CCc2ccc(Cl)cc2)CC[C@H]2CCCC[C@@H]2O)nc1C(=O)NS(C)(=O)=O` (racemic) [Compound 146, 2-[2-(4-chlorophenyl)ethyl-[2-[trans-2-hydroxycyclohexyl]ethyl]amino]-5-methyl-N-methylsulfonyl-thiazole-4-carboxamide], the figures for the EC50 in test [1] and in test [2] were 50.1 nM and 794 nM, respectively.
For `Cc1sc(N(CCc2cccc(Cl)c2)Cc2ccccc2)nc1C(=O)NS(C)(=O)=O` [Compound 671, 2-[benzyl-[2-(3-chlorophenyl)ethyl]amino]-5-methyl-N-methylsulfonyl-thiazole-4-carboxamide] the same measures were 50.1 nM and 1580 nM.
`Cc1sc(N(Cc2ccccc2)c2ccc(C(F)(F)F)cc2)nc1C(=O)NS(C)(=O)=O` [Compound 341, 2-[N-benzyl-4-(trifluoromethyl)anilino]-5-methyl-N-methylsulfonyl-thiazole-4-carboxamide]: the EC50 is 63.1 nM in test [1] and 1260 nM in test [2].
